# In patent US20020155172A1, “Methods and compounds for decreasing cell toxicity or death” (priority 2000, published 2002):
# Columns and labels:
# HSP40 and HSP70 = assay: Expression of chaperone proteins; assay type: cell-based; conditions: Q79-expressing (HA-Q79) HeLa cells
# Source text: We examined whether the destabilizing effect of Congo red on polyglutamine oligomers in HeLa cells expressing expanded polyglutamine repeats was caused indirectly through increased expression of endogenous chaperones (FIG. 5E). Lysates from Congo red-treated or control cells expressing expanded polyglutamine repeats (HA-[…]) were separated by SDS-PAGE and probed with anti-HSP70, anti-HSP40, and anti-HA antibodies to detect polyglutamine repeats.
# R62 mice = assay: Survival; assay type: in vivo; conditions: infused intraperitoneally
# Source text: FIG. 10G is a graph of the effect of PBS (vehicle; delivered intraperitoneally) or Congo red, infused intraperitoneally, on survival of HD transgenic mice.
# In addition, the ability of Congo red to inhibit the formation as well as to disrupt preformed polyglutamine oligomers allowed us to examine the role of polyglutamine aggregates in neuronal dysfunction and degeneration characteristic of polyglutamine expansion diseases. In these studies, we used the animal model of Huntington's disease (R62), which expresses the truncated form of huntingtin with 139 CAG repeats Mangiarini et al. (supra). We took advantage of our finding that in addition to inhibiting polyglutamine oligomerization, Congo red also disrupts pre-formed oligomers, thus allowing assessment of the impact of Congo red on disease progression after formation of polyglutamine aggregates and the onset of symptoms. R62 transgenic mice and CBAxC57B1/6 F1 wild type littermates were obtained from Jackson Laboratories (Bar Harbor, Me.) at the age of five weeks. […]
# The initial abnormal neurological signs of R62 mice include dyskinesia of the hindlimbs when mice were suspended by the tail, and irregular gait. […] The effect of Congo red on motor performance in R62 mice was also assessed by rotarod studies. […]
# [1] = test system: neuroblastoma (SHSY) cells transfected with Q79-GFP; assay: Expanded polyglutamine aggregation and cell death in neuroblastoma (SHSY) cells; assay type: cell-based; conditions: Congo red 1.5 to 100 nM
# Experimental: Cells, including neuroblastoma cells, HeLa cells, primary neuronal cells, and primary embryonic neuronal cells were transiently transfected with the plasmid […]-GFP, encoding 79 glutamines followed by the jellyfish green fluorescent protein (Sanchez et al., supra). Expression of […]-GFP was observed 48 or 72 hours after transfection by visual inspection of GFP-positive cells using an inverted fluorescence microscope. In a cell expressing […]-GFP polypeptides, polyglutamine aggregates are formed and the cell dies by apoptosis (Sanchez, supra). Cell viability was determined by morphological criteria characteristic of apoptosis, including cell blebbing, shrinking. Total cell lysates and tissue homogenates were obtained using Buffer A: 1% triton in PBS, containing 10 μg/ml DNAse and protease inhibitors; leupeptin 20 μg/ml, aprotinin 20 u/ml, and PMSF 100 mM. […] These effects were determined by visual inspection of GFP-positive cells under an inverted fluorescence microscope. […] Cells expressing […]-GFP were incubated in cell culture media containing Congo red and evaluated for the effect of Congo red on polyglutamine aggregation and cell death. […] The cells were then scored the presence of visible oligomers by fluorescence microscopy. Cells in which oligomers were not detected at this level of resolution were scored as cells lacking polyglutamine aggregates. […]
# [2] = test system: non-transfected HeLa cells; assay: Total cellular protein degradation; assay type: cell-based; conditions: Congo red 100 μM, ZVAD 100 μM, MG132 10 μM; H3-tyrosine release, 0 to 180 minutes
# Experimental: FIG. 8C is a graph of the effect of effect of Congo red, ZVAD, or the proteosome inhibitor MG132 on total cellular protein degradation in non-transfected HeLa cells.
# To rule out the possibility that Congo red may have an effect on protein degradation in general, we tested the effect of Congo red on proteosome degradation. Rates of total cellular protein degradation experiments, from cells seeded in 12 well dishes at 2×10^4, treated with Congo red (100 μM), ZVAD (100 μM), or the proteosome inhibitor MG132 (10 μM) and labeled with 5 μCi/ml of H^3-tyrosine for 1 hour. One hundred microliter culture medium aliquots were collected at 0, 30, 60, 90, 120, and 180 minute time points, and the levels of H^3-tyrosine were determined using an LS6000 scintillation counter (Beckman, Co).
smiles,measurement,setting,value
"Nc1c(/N=N/c2ccc(-c3ccc(/N=N/c4cc(S(=O)(=O)O)c5ccccc5c4N)cc3)cc2)cc(S(=O)(=O)O)c2ccccc12 [Congo red, diphenyldiazo-bis-alpha-napthylaminesulfonate]",expression of HSP40 or HSP70,HSP40 and HSP70,did not induce the expression of HSP40 or HSP70
same,mean survival length,R62 mice,106 days
same,cell death,[1],significantly reduced cell death
same,formation of polyglutamine aggregates,[1],inhibited the formation of polyglutamine aggregates
same,general protein degradation,[2],neither Congo red nor ZVAD had any effect
